From patent US12577217B2, “15-PGDH inhibitor” (KYORIN Pharmaceutical Co., Ltd., priority 2019, dated 2026)

Molecular target: T1, recombinant human 15-PGDH (Homo sapiens, UniProt P15428)
T1 construct: purchased R&D Systems
T1 sequence (P15428 1-266): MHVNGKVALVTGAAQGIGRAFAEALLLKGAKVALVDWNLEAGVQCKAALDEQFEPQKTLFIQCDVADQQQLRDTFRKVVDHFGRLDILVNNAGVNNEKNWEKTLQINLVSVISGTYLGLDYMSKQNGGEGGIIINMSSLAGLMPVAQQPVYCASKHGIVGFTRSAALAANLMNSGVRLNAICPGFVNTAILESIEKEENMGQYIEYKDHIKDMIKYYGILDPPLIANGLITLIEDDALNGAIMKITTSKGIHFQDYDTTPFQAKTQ
Assay: 15-PGDH enzyme inhibition test
Type: biochemical
Conditions: 4 nM recombinant human 15-PGDH, 30 μM PGE2, 1 mM NAD+, 60 minutes after starting the reaction; read-out: IC50 Value
Summary of the method: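 Fluorescence (excitation 340 nm, emission 440 nm) measured 60 min after adding 1 mM NAD+ and 30 μM PGE2 to 4 nM recombinant human 15-PGDH, which had stood 12 min at room temperature with compound in pH 8.0 Tris-HCl buffer. Concentration-response curves yield IC50, binned into potency categories.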

SMILES	IC50 [nM]
CCn1nc2cc(N3CCCc4cc(C(=O)N5CCN(C(C)=O)CC5)cnc43)ccn2c1=O [Example 8-153]	> 100
COCCOCCn1nc2cc(N3CCCc4cc(C(=O)N5CCC(F)(F)CC5)cnc43)ccn2c1=O [Example 1-80]	< 10
Cn1nc2cc(N3CCCOc4cc(C(=O)N5CCC[C@H](F)C5)cnc43)ccn2c1=O [Example 8-63]	< 10
Cn1nc2cc(N3CCOc4cc(C(=O)N5CCCC6(CCO6)C5)cnc43)ccn2c1=O (stereo not drawn) [Example 8-51]	10 to 100
Cn1nc2cc(N3CCOc4cc(C(=O)N5CCC[C@@H](C(F)(F)F)C5)cnc43)ccn2c1=O [Example 8-115]	< 10
Cn1nc2cc(N3CCOc4cc(S(=O)(=O)C5CCCCC5)cnc43)ccn2c1=O [Example 7-6]	> 100
COCn1nc2cc(N3CCCc4cc(C(=O)N5CCC[C@H](CF)C5)cnc43)ccn2c1=O [Example 1-114]	< 10
Cn1nc2cc(N3CCCOc4cc(C(=O)N5CCCC5)cnc43)ccn2c1=O [Example 8-58]	< 10
CN1Cc2cc(N3CCOc4cc(C(=O)N5CCC(F)(F)CC5)ccc43)ncc2C1=O [Example 1-151]	< 10
CCN1Cc2cc(N3CCCc4cc(C(=O)N5CCCCCCC5)cnc43)ccc2C1=O [Example 8-71]	< 10
CS(=O)(=O)Cc1ccc(N2CCOc3cc(C(=O)N4CCCCC4)ccc32)cc1 [Example 1-162]	< 10
O=C(c1cnc2c(c1)OCCN2c1ccc2c(c1)CN(C1CC1)C2=O)N1CCCCC1 [Example 1-224]	< 10
CCOc1noc2cc(N3CCOc4cc(C(=O)N5CCCCC5)cnc43)ccc12 [Example 8-215]	< 10
CCN1Cc2cc(N3CCCc4cc(C(=O)N5CCCC[C@@H]5C)cnc43)ccc2C1=O [Example 8-79]	< 10
Cn1nc2cc(N3CCOc4cc(C(=O)N5CCC6(CC5)CC6)cnc43)ccn2c1=O [Example 8-45]	< 10
CCn1nc2cc(N3CCCc4cc(C(=O)N5CCCCCC5)cnc43)ccn2c1=O [Example 8-149]	< 10
O=C(c1ccc2c(c1)OCCN2C1CCCCC1)N1CCCCC1 [Example 8-14]	10 to 100
CC1CN(C(=O)c2cnc3c(c2)OCCN3c2ccn3c(=O)n(C)nc3c2)CCC1(F)F (stereo not drawn) [Example 8-47]	< 10
CCOCCn1nc2cc(N3CCCc4cc(C(=O)N5CCC[C@@H](CF)C5)cnc43)ccn2c1=O [Example 1-124]	< 10

SMILES	IC50 [nM]
CN1Cc2cc(N3CCCc4cc(C(=O)N5CCCCC5)cnc43)ccc2C1=O [Example 1-68]	< 10
Cn1nc2cc(N3CCN(c4cccnc4)c4cc(C(=O)N5CCC(F)(F)CC5)cnc43)ccn2c1=O [Example 30-5]	> 100
Cn1nc2cc(N3CCOc4cc(C(=O)N5CCOCC5)cnc43)ccn2c1=O [Example 8-225]	10 to 100
Cc1cc(N2CCOc3cc(C(=O)N4CCCCC4)ccc32)n2ncnc2n1 [Example 24-1, (4-(5-Methyl-[1,2,4]triazolo[1,5-a]pyrimidin-7-yl)-3,4-dihydro-2H-benzo[b][1,4]oxazin-7-yl)(piperidin-1-yl)methanone]	> 100
CN1Cc2cc(N3CCOc4cc(C(=O)N5Cc6ccccc6C5)cnc43)ccc2C1=O [Example 8-193]	< 10
CN1Cc2cc(N3CCOc4cc(C(=O)N5CCc6ccccc6C5)cnc43)ccc2C1=O [Example 8-192]	< 10
CN1Cc2cc(N3CCOc4cc(C(=O)N5CCC[C@H](CF)C5)cnc43)ccc2C1=O [Example 8-204]	< 10
Cn1nc2cc(N3CCOc4cc(C(=O)N5CCC[C@@H]5C(=O)O)cnc43)ccn2c1=O [Example 35-2]	> 100
COc1noc2cc(N3CCOc4cc(C(=O)N5CCCCC5)cnc43)ccc12 [Example 1-20]	< 10
CN1Cc2cc(N3CCOc4cc(C(=O)N5CCCCCC5)cnc43)ccc2C1=O [Example 8-186]	< 10
CCC(O)CNC(=O)c1cnc2c(c1)OCCN2c1ccn2c(=O)n(C)nc2c1 (stereo not drawn) [Example 8-178]	> 100
Cn1nc2cc(N3CCOc4cc(C(=O)N5CCC(C#N)CC5)cnc43)ccn2c1=O [Example 8-183]	10 to 100
CCn1nc2cc(N3CCCc4cc(C(=O)N5CCC(F)CC5)cnc43)ccn2c1=O [Example 8-165]	< 10
CC(C)(N)c1ccc(N2CCOc3cc(C(=O)N4CCCCC4)cnc32)cc1 [Example 1-246]	> 100
CN1Cc2cc(N3CCOc4cc(C(=O)N5CCC[C@@H](C(F)(F)F)C5)cnc43)ccc2C1=O [Example 8-207]	< 10
Cn1nc2cc(N3CCCc4cc(C(=O)N5CCC[C@@H](C(F)F)C5)cnc43)ccn2c1=O [Example 8-142]	< 10
O=C(c1cnc2c(c1)CCCN2c1ccn2c(=O)[nH]nc2c1)N1CCC(F)(F)CC1 [Example 1-184]	< 10
Cn1cnc2cc(N3CCOc4cc(C(=O)N5CCC(F)(F)CC5)ccc43)ccc2c1=O [Example 1-153]	< 10
CN1C(=O)c2ccc(N3CCOc4cc(C(=O)N5CCCCC5)cnc43)cc2S1(=O)=O [Example 1-165]	< 10

SMILES	IC50 [nM]
O=C(O)c1ccc(N2CCC[S+]([O-])c3cc(C(=O)N4CCCCC4)ccc32)cc1 (stereo not drawn) [Example 2-19]	> 100
COCn1nc2cc(N3CCCc4cc(C(=O)N5CCC[C@H](C(F)F)C5)cnc43)ccn2c1=O [Example 8-118]	< 10
CCn1nc2cc(N3CCCc4cc(C(=O)N5CCC(F)(F)CC5)cnc43)ccn2c1=O [Example 1-75]	< 10
COCn1nc2cc(N3CCCc4cc(C(=O)N5CC[C@@H](C)C5)cnc43)ccn2c1=O [Example 8-121]	< 10
Cn1cnc2cc(N3CCCc4cc(C(=O)N5CCCCC5)cnc43)ccc2c1=O [Example 1-87]	< 10
Cn1nc2cc(N3CCOc4cc(C(=O)N5CCCC5)cnc43)ccn2c1=O [Example 8-20]	< 10
O=C(c1cnc2c(c1)CCCN2c1ccc(Cl)cc1)N1CCCCC1 [Example 1-211]	10 to 100
Cn1oc2cc(N3CCOc4cc(C(=O)N5CCCCC5)cnc43)ccc2c1=O [Example 1-19]	< 10
O=C(c1cnc2c(c1)CCCN2c1ccc2c(c1)CN(C1CC1)C2=O)N1CCCCC1 [Example 1-198]	< 10
Cn1nc2cc(N3CCOc4cc(C(=O)N5CCC[C@@H]5C(=O)OC(C)(C)C)cnc43)ccn2c1=O [Example 8-228]	> 100
CN(CCCCO)C(=O)c1cnc2c(c1)OCCN2c1ccn2c(=O)n(C)nc2c1 [Example 8-177]	> 100
Cn1nc2cc(N3CCCOc4cc(C(=O)N5CCCCC5)cnc43)ccn2c1=O [Example 1-99]	< 10
C[C@H]1CCCN(C(=O)c2cnc3c(c2)CCCN3c2ccn3c(=O)n(C)nc3c2)C1 [Example 8-135]	< 10
CCN1Cc2cc(N3CCCc4cc(C(=O)N5CCc6ccccc6C5)cnc43)ccc2C1=O [Example 8-76]	< 10
O=C(c1cnc2c(c1)OCCN2c1ccc2cnccc2c1)N1CCCCC1 [Example 1-259]	< 10
CC(C)(C(=O)O)c1ccc(N2CCOc3cc(C(=O)N4CCCCC4)cnc32)cc1 [Example 2-37]	> 100
CNC(=O)c1ncc(N2CCCc3cc(C(=O)N4CCC(F)(F)CC4)cnc32)cc1F [Example 1-180]	< 10
Cn1nc2cc(N3CCOc4cc(C(=O)N5CCCCCCC5)sc43)ccn2c1=O [Example 8-224]	10 to 100
CCC1CCCN(C(=O)c2cnc3c(c2)OCCN3c2ccn3c(=O)n(C)nc3c2)C1 (stereo not drawn) [Example 8-43]	< 10
